# Results from paper PMC6691788, “Design and synthesis of phthalazine-based compounds as potent anticancer agents with potential antiangiogenic activity via VEGFR-2 inhibition” (Journal of Enzyme Inhibition and Medicinal Chemistry, 2019).
# Legend:
# Experiment in all cases: NCI 60 cell panel SRB screen
# HL-60(TB) = assay type: cell-based; details: Homo sapiens; for GI50 / IC (TGI) / CC50: 5 log dose; for CC50: 48 h, read-out: LC50 (the source's name); for activity at 10 µM: single dose 10 μM, read-out: percent cell growth promotion
# HCT-15 = assay type: cell-based; details: Homo sapiens; for GI50 / IC (TGI) / CC50: HCT-15, 5 log dose; for CC50: 48 h, read-out: LC50 (the source's name); for activity at 10 µM: HCT-15, single dose 10 μM, read-out: percent cell growth promotion
# MALME-3M = assay type: cell-based; details: Homo sapiens; for GI50 / IC (TGI) / activity at 10 µM: Malme-3M; for IC (TGI): read-out: TGI; for activity at 10 µM: read-out: percent cell growth promotion; for CC50: MALME-3M, 5 log dose, 48 h, read-out: LC50 (the source's name)
# PC-3 = assay type: cell-based; details: Homo sapiens; for GI50 / IC (TGI) / CC50: PC-3, 5 log dose; for CC50: 48 h, read-out: LC50 (the source's name); for activity at 10 µM: PC-3, single dose 10 μM, read-out: percent cell growth promotion
# NCI-H226 = assay type: cell-based; details: Homo sapiens; for GI50 / IC (TGI) / CC50: NCI-H226, 5 log dose; for CC50: 48 h, read-out: LC50 (the source's name); for activity at 10 µM: NCI-H226, single dose 10 μM, read-out: percent cell growth promotion
# MCF7 = assay type: cell-based; details: Homo sapiens; for GI50: MCF7; for IC (TGI): MCF7, read-out: TGI; for activity at 10 µM: MCF7, read-out: percent cell growth promotion; for CC50: MCF7, 5 log dose, 48 h, read-out: LC50 (the source's name)
# NCI-H23 = assay type: cell-based; details: Homo sapiens; for GI50 / IC (TGI) / CC50: NCI-H23, 5 log dose; for CC50: 48 h, read-out: LC50 (the source's name); for activity at 10 µM: NCI-H23, single dose 10 μM, read-out: percent cell growth promotion
# HCC-2998 = assay type: cell-based; details: Homo sapiens; for GI50 / IC (TGI) / LC50 (50% lethal concentration): HCC-2998, 5 log dose; for LC50 (50% lethal concentration): 48 h; for activity at 10 µM: HCC-2998, single dose 10 μM, read-out: percent cell growth promotion
# KM12 = assay type: cell-based; details: Homo sapiens; for GI50 / IC (TGI) / CC50: KM12, 5 log dose; for CC50: 48 h, read-out: LC50 (the source's name); for activity at 10 µM: KM12, single dose 10 μM, read-out: percent cell growth promotion
# 786-0 = assay type: cell-based; details: Homo sapiens; for GI50 / IC (TGI) / CC50: 786-0, 5 log dose; for CC50: 48 h, read-out: LC50 (the source's name); for activity at 10 µM: 786-0, single dose 10 μM, read-out: percent cell growth promotion
# CCRF-CEM = assay type: cell-based, human; details: for TGI / GI50 / CC50: 5 log dose; for GI50 / CC50 / activity at 10 µM: Homo sapiens; for CC50: 48 h, read-out: LC50 (the source's name); for activity at 10 µM: single dose 10 μM, read-out: percent cell growth promotion
# SNB-19 = assay type: cell-based; details: Homo sapiens; for GI50 / IC (TGI) / CC50: SNB-19, 5 log dose; for CC50: 48 h, read-out: LC50 (the source's name); for activity at 10 µM: SNB-19, single dose 10 μM, read-out: percent cell growth promotion
# RPMI-8226 = assay type: cell-based; details: Homo sapiens; for GI50 / IC (TGI) / CC50: RPMI-8226, 5 log dose; for CC50: 48 h, read-out: LC50 (the source's name); for activity at 10 µM: RPMI-8226, single dose 10 μM, read-out: percent cell growth promotion
# UACC-62 = assay type: cell-based; details: for GI50 / activity at 10 µM / CC50: Homo sapiens; for GI50: UACC-62; for activity at 10 µM: UACC-62, read-out: percent cell growth promotion; for CC50 / TGI: UACC-62, 5 log dose; for CC50: 48 h, read-out: LC50 (the source's name)
# SR = assay type: cell-based; details: Homo sapiens; for GI50 / IC (TGI) / CC50: 5 log dose; for CC50: 48 h, read-out: LC50 (the source's name); for activity at 10 µM: single dose 10 μM, read-out: percent cell growth promotion
# HCT-116 = assay type: cell-based; details: Homo sapiens; for GI50 / IC (TGI) / LC50 (lethal concentration 50%): HCT-116, 5 log dose; for LC50 (lethal concentration 50%): 48 h; for activity at 10 µM: HCT-116, single dose 10 μM, read-out: percent cell growth promotion
# SF-295 = assay type: cell-based; details: Homo sapiens; for GI50 / IC (TGI) / CC50: SF-295, 5 log dose; for CC50: 48 h, read-out: LC50 (the source's name); for activity at 10 µM: SF-295, single dose 10 μM, read-out: percent cell growth promotion
# RXF 393 = assay type: cell-based; details: Homo sapiens; for GI50 / IC (TGI) / CC50: RXF 393, 5 log dose; for CC50: 48 h, read-out: LC50 (the source's name); for activity at 10 µM: RXF 393, single dose 10 μM, read-out: percent cell growth promotion
# OVCAR-3 = assay type: cell-based; details: Homo sapiens; for GI50 / IC (TGI) / CC50: OVCAR-3, 5 log dose; for CC50: 48 h, read-out: LC50 (the source's name); for activity at 10 µM: OVCAR-3, single dose 10 μM, read-out: percent cell growth promotion
structure (smiles),measurement,setting,value
"COc1cccc(NCc2nnc(Nc3ccc(Cl)cc3)c3ccccc23)c1 [Compound 16d, N-(4-Chlorophenyl)-4-((3-methoxyphenylamino)methyl)phthalazin-1-amine]",GI50,HL-60(TB),3.78 µM
same,IC (TGI),HL-60(TB),13.1 µM
same,CC50,HL-60(TB),> 25 µM
same,activity at 10 µM,HL-60(TB),-27.1%
same,GI50,HCT-15,1.78 µM
same,IC (TGI),HCT-15,7.56 µM
same,CC50,HCT-15,> 25 µM
same,activity at 10 µM,HCT-15,-18.1%
same,GI50,MALME-3M,1.22 µM
same,IC (TGI),MALME-3M,6.23 µM
same,activity at 10 µM,MALME-3M,-22%
same,CC50,MALME-3M,17.3 µM
same,GI50,PC-3,1.19 µM
same,IC (TGI),PC-3,9.33 µM
same,CC50,PC-3,> 25 µM
same,activity at 10 µM,PC-3,-13.6%
same,GI50,NCI-H226,0.95 µM
same,IC (TGI),NCI-H226,6.82 µM
same,CC50,NCI-H226,> 25 µM
same,activity at 10 µM,NCI-H226,-22.9%
same,GI50,MCF7,0.93 µM
same,IC (TGI),MCF7,6.4 µM
same,activity at 10 µM,MCF7,-1.96%
same,CC50,MCF7,24.9 µM
same,GI50,NCI-H23,1.22 µM
same,IC (TGI),NCI-H23,6.74 µM
same,CC50,NCI-H23,24.6 µM
same,activity at 10 µM,NCI-H23,2.05%
same,GI50,HCC-2998,3.44 µM
same,IC (TGI),HCC-2998,8.79 µM
same,LC50 (50% lethal concentration),HCC-2998,22.5 µM
same,activity at 10 µM,HCC-2998,2.79%
same,GI50,KM12,0.13 µM
same,IC (TGI),KM12,6.52 µM
same,CC50,KM12,18.6 µM
same,activity at 10 µM,KM12,-24.9%
same,GI50,786-0,2.22 µM
same,IC (TGI),786-0,7.63 µM
same,CC50,786-0,24.4 µM
same,activity at 10 µM,786-0,-5.76%
same,TGI,CCRF-CEM,13.4 µM
same,GI50,CCRF-CEM,2.73 µM
same,CC50,CCRF-CEM,> 25 µM
same,activity at 10 µM,CCRF-CEM,-4.42%
same,GI50,SNB-19,3.5 µM
same,IC (TGI),SNB-19,13 µM
same,CC50,SNB-19,> 25 µM
same,activity at 10 µM,SNB-19,17.8%
same,GI50,RPMI-8226,1.48 µM
same,IC (TGI),RPMI-8226,7.51 µM
same,CC50,RPMI-8226,> 25 µM
same,activity at 10 µM,RPMI-8226,-28.1%
same,GI50,UACC-62,1 µM
same,activity at 10 µM,UACC-62,-29.2%
same,CC50,UACC-62,20.1 µM
same,TGI,UACC-62,5.76 µM
same,GI50,SR,0.97 µM
same,IC (TGI),SR,8.85 µM
same,CC50,SR,> 25 µM
same,activity at 10 µM,SR,-24.5%
same,GI50,HCT-116,0.88 µM
same,IC (TGI),HCT-116,4.2 µM
same,LC50 (lethal concentration 50%),HCT-116,11.2 µM
same,activity at 10 µM,HCT-116,-44.2%
same,GI50,SF-295,1.94 µM
same,IC (TGI),SF-295,8.24 µM
same,CC50,SF-295,> 25 µM
same,activity at 10 µM,SF-295,-22.6%
same,GI50,RXF 393,2.16 µM
same,IC (TGI),RXF 393,6.11 µM
same,CC50,RXF 393,15.9 µM
same,activity at 10 µM,RXF 393,-11.6%
same,GI50,OVCAR-3,1.64 µM
same,IC (TGI),OVCAR-3,10 µM
same,CC50,OVCAR-3,> 25 µM
same,activity at 10 µM,OVCAR-3,-53.6%
"Clc1ccc(Nc2nnc(COc3ccccc3)c3ccccc23)cc1 [Compound 17a, N-(4-Chlorophenyl)-4-(phenoxymethyl)phthalazin-1-amine]",GI50,HL-60(TB),3.56 µM
same,IC (TGI),HL-60(TB),11.9 µM
same,CC50,HL-60(TB),> 25 µM
same,activity at 10 µM,HL-60(TB),-15.7%
same,GI50,HCT-15,2.05 µM
same,IC (TGI),HCT-15,6.75 µM
same,CC50,HCT-15,19.7 µM
same,activity at 10 µM,HCT-15,4.45%
same,GI50,MALME-3M,1.38 µM
same,IC (TGI),MALME-3M,7.3 µM
same,activity at 10 µM,MALME-3M,-13.5%
same,CC50,MALME-3M,25 µM
same,GI50,PC-3,1.3 µM
same,IC (TGI),PC-3,10.1 µM
same,CC50,PC-3,> 25 µM
same,activity at 10 µM,PC-3,-0.2%
same,GI50,NCI-H226,1.56 µM
same,IC (TGI),NCI-H226,6.58 µM
same,CC50,NCI-H226,21.7 µM
same,activity at 10 µM,NCI-H226,1.78%
same,GI50,MCF7,1.18 µM
same,IC (TGI),MCF7,6.07 µM
same,activity at 10 µM,MCF7,1.31%
same,CC50,MCF7,19.8 µM
same,GI50,NCI-H23,1.56 µM
same,IC (TGI),NCI-H23,7.87 µM
same,CC50,NCI-H23,> 25 µM
same,activity at 10 µM,NCI-H23,4.18%
same,GI50,HCC-2998,3.81 µM
same,IC (TGI),HCC-2998,8.36 µM
same,LC50 (50% lethal concentration),HCC-2998,18.3 µM
same,activity at 10 µM,HCC-2998,8.55%
same,GI50,KM12,2.65 µM
same,IC (TGI),KM12,7.72 µM
same,CC50,KM12,22.4 µM
same,activity at 10 µM,KM12,0.18%
same,GI50,786-0,2.6 µM
same,IC (TGI),786-0,8.11 µM
same,CC50,786-0,> 25 µM
same,activity at 10 µM,786-0,5.25%
same,TGI,CCRF-CEM,14.2 µM
same,GI50,CCRF-CEM,2.8 µM
same,CC50,CCRF-CEM,> 25 µM
same,activity at 10 µM,CCRF-CEM,1.06%
same,GI50,SNB-19,3.2 µM
same,IC (TGI),SNB-19,12 µM
same,CC50,SNB-19,> 25 µM
same,activity at 10 µM,SNB-19,21.9%
same,GI50,RPMI-8226,1.37 µM
same,IC (TGI),RPMI-8226,6.96 µM
same,CC50,RPMI-8226,> 25 µM
same,activity at 10 µM,RPMI-8226,-25.3%
same,GI50,UACC-62,1.24 µM
same,activity at 10 µM,UACC-62,-27.7%
same,CC50,UACC-62,17.5 µM
same,TGI,UACC-62,5.69 µM
same,GI50,SR,1.23 µM
same,IC (TGI),SR,11.2 µM
same,CC50,SR,> 25 µM
same,activity at 10 µM,SR,-20.6%
same,GI50,HCT-116,1.07 µM
same,IC (TGI),HCT-116,4.83 µM
same,LC50 (lethal concentration 50%),HCT-116,13.1 µM
same,activity at 10 µM,HCT-116,1.21%
same,GI50,SF-295,1.65 µM
same,IC (TGI),SF-295,6.7 µM
same,CC50,SF-295,20.5 µM
same,activity at 10 µM,SF-295,-1.11%
same,GI50,RXF 393,1.01 µM
same,IC (TGI),RXF 393,4.97 µM
same,CC50,RXF 393,14.4 µM
same,activity at 10 µM,RXF 393,-5.93%
same,GI50,OVCAR-3,2.87 µM
same,IC (TGI),OVCAR-3,9.8 µM
same,CC50,OVCAR-3,> 25 µM
same,activity at 10 µM,OVCAR-3,-35.1%
